# Laboratory results from patent EP0422618A1, “Polysaccharides with antiphlogistic activity, method for obtaining them and pharmaceutical compositions containing the same” (LOMAPHARM Rudolf Lohmann GmbH KG Pharmazeutische Fabrik, priority 1989, dated 1991).
# Test system: Carrageenan induzierten Rattenpfotenödem
# Assay: Carrageenan-induced rat paw oedema test
# Assay type: in vivo, Ratte
# Settings: 10 mg/kg i.v.
# From the text: Die antiphlogistische Wirkung der erfindungsgemäßen Polysaccharide wurde im Carrageenan induzierten Rattenpfotenödemtest untersucht (Winter, C.A. et al., Proc. Soc. Exp. Biol. Med. 111, 544 (1962)).
structure (smiles),measurement,value
COc1ccc2c(c1)c(CC(=O)O)c(C)n2C(=O)c1ccc(Cl)cc1 [Indometacin],Hemmung des Rattenpfotenödems nach 8 Stunden,"Indometacin 10 mg/kg i.v. 22,9%"
